# No end group written: not given here.
# Assays:
# [1] = test system: human keratinocytes (HaCaT); type: cell-based; details: 24 h
# Protocol: To evaluate the cytotoxicity of the peptides (IC50), the classic MTT assay on 96-well plates was performed for human keratinocytes (HaCaT) which were acquired from the ATCC. The assay utilizes colorimetric determination of the cell metabolic activity, and the color intensity reflects the number of live cells that can be measured spectrophotometrically. […] DMSO was added to the control cells at a final concentration of 1.0% (v/v), which was related to the maximum concentration of the solvent compounds used in the experiment. After 24 h of incubation at 37 °C (humidified 5% CO2 incubator) with the peptides, a medium containing 1 mg/mL of MTT was added to the wells up to a final concentration of 0.5 mg/mL. Subsequently, the plates were incubated at 37 °C for 4 h. Then, the medium was aspirated, and the formazan product was solubilized with DMSO. The background absorbance at 630 nm was subtracted from that at 570 nm for each well (Epoch, BioTek Instruments, USA). Six replicates were conducted for each concentration. All experiments were repeated at least twice and the resulting IC50 values were calculated with GraFit 7 software (v. 7.0, Erithacus, Berkley, CA, USA).
# [2] = test system: S. aureus ATCC 12598 biofilm; details: ATCC 12598, reference strain
# Description: (§1) Clinical S. aureus strains were collected from patients with atopic dermatitis during their visits to the Outpatient Clinic and hospitalization in the Department of Dermatology, Venereology and Allergology at Medical University of Gdańsk (following the approval from the ethics committee, Approval Number NKBBN/242–477/2014). Reference strains of S. aureus ATCC 25923, S. aureus ATCC 33591, S. aureus ATCC 9144, and S. aureus ATCC 12598 were obtained from the American Type Culture Collection. All the strains were stored at − 80 °C in Roti®-Store cryo vials (Carl Roth GmbH, Karlsruhe, Germany) and before the tests were transferred into fresh Mueller–Hinton Medium (BioMaxima, Lublin, Poland) and incubated for 24 h at 37 °C. Subsequently, each bacterial inoculum was seeded on Mueller–Hinton agar plates (BioMaxima) and incubated again for 24 h. The cultures prepared in this way were used in further antimicrobial assays. Minimum inhibitory concentrations (MICs) were determined according to the Clinical and Laboratory Standards Institute recommendations. […] The experiments were conducted on 96-well microtiter plates, with a final volume of 100 μL. Additionally, in the case of daptomycin, the medium was supplemented with Ca^2+ (50 mg/L). Cell densities were adjusted spectrophotometrically (Multiskan™ GO Microplate Spectrophotometer, Thermo Scientific) at 600 nm. The MICs were taken as the lowest drug concentration at which a visible growth of the microorganisms was inhibited. Minimum biofilm eliminating concentrations (MBECs) were determined on 96-well flat-bottomed microtiter polystyrene plates with resazurin (7-hydroxy-3H-phenoxazin-3-one 10-oxide sodium salt) as a cell viability reagent. To do this, the plates were filled with 100 μL of the initial inoculums of bacteria (0.5 × 10^7 CFU/mL) in the Mueller–Hinton broth and incubated for 24 h at 37 °C. […] After 24 h of incubation, 20 μL of resazurin (4 mg/mL) was added to each well and the MBEC values were read. Minimum biofilm inhibitory concentrations (MBICs) were also determined on 96-well flat-bottomed microtiter polystyrene plates as described previously. To do this, 50 μL of the compounds in the concentration range, diluted MHB, were prepared. Subsequently, the 50 μL of the staphylococcal inoculums were added to reach the same density of bacteria as that in the MBEC assay. After 24 h of incubation at 37 °C, the wells were rinsed three times with PBS and the fresh medium (100 μL) with resazurin (0.6 mg/mL) was added. Then, after 1 h of incubation, MBICs were read. […] All experiments were conducted in triplicate.
# S. aureus ATCC 12598 = details: ATCC 12598, reference strain
# Description: as §1
# [3] = test system: S. aureus ATCC 25923 biofilm; details: ATCC 25923, reference strain
# Description: as §1
# S. aureus ATCC 25923 = details: ATCC 25923, reference strain
# Description: as §1
# [4] = test system: S. aureus ATCC 33591 (MRSA) biofilm; details: ATCC 33591, 24 h
# Description: as §1
# [5] = test system: S. aureus ATCC 33591 (MRSA); details: ATCC 33591, 24 h
# Description: as §1
# [6] = test system: S. aureus ATCC 9144 biofilm; details: ATCC 9144, reference strain
# Description: as §1
# S. aureus ATCC 9144 = details: ATCC 9144, reference strain
# Description: as §1
# [7] = test system: S. aureus clinical strain 004N (MRSA) biofilm; details: clinical strain 004N biofilm, 24 h
# Description: as §1
# [8] = test system: S. aureus clinical strain 004N (MRSA); details: 24 h
# Description: as §1
# [9] = test system: S. aureus clinical strain 005S biofilm
# Description: as §1
# [10] = test system: S. aureus clinical strain 005S
# Description: as §1
# [11] = test system: S. aureus clinical strain 009S biofilm
# Description: as §1
# [12] = test system: S. aureus clinical strain 009S
# Description: as §1
# [13] = test system: S. aureus clinical strain 015N (MRSA) biofilm; details: clinical strain 015N biofilm, 24 h
# Description: as §1
# [14] = test system: S. aureus clinical strain 015N (MRSA); details: 24 h
# Description: as §1
# [15] = test system: S. aureus clinical strain 030N biofilm
# Description: as §1
# [16] = test system: S. aureus clinical strain 030N
# Description: as §1
# [17] = test system: S. aureus clinical strain 031S biofilm
# Description: as §1
# [18] = test system: S. aureus clinical strain 031S
# Description: as §1
# [19] = test system: S. aureus clinical strain 043SC (MRSA) biofilm; details: clinical strain 043SC biofilm, 24 h
# Description: as §1
# [20] = test system: S. aureus clinical strain 043SC (MRSA); details: 24 h
# Description: as §1
# [21] = test system: S. aureus clinical strain 051N (MRSA) biofilm; details: clinical strain 051N biofilm, 24 h
# Description: as §1
# [22] = test system: S. aureus clinical strain 051N (MRSA); details: 24 h
# Description: as §1
# [23] = test system: S. aureus clinical strain 060S biofilm
# Description: as §1
# [24] = test system: S. aureus clinical strain 060S
# Description: as §1
# [25] = test system: biofilm of reference and clinical strains of staphylococci (S. aureus); details: for mean MBEC (initial values): 24 h
# Description: as §1
# [26] = test system: reference and clinical strains of staphylococci (S. aureus); details: 24 h
# Description: as §1
# S. aureus ATCC 6538 = details: ATCC 6538, reference strain
# [27] = test system: S. aureus ATCC 6538 biofilm; details: ATCC 6538, reference strain
# [28] = test system: S. aureus ATCC 6538 biofilm; details: ATCC 6538, reference strain; remark: listed apart in the source
substance,measurement,setting,value
KRRWPWWPWRLI-NH2 [Retro-omiganan TFA^−],IC50,[1],29.51 µg/mL
same,MBEC,[2],32 µg/mL
same,MBIC,[2],16 µg/mL
same,MIC,S. aureus ATCC 12598,8 µg/mL
same,MBEC,[3],128 µg/mL
same,MBIC,[3],16 µg/mL
same,MIC,S. aureus ATCC 25923,8 µg/mL
same,MBEC,[4],64 µg/mL
same,MBIC,[4],16 µg/mL
same,MIC,[5],16 µg/mL
same,MBEC,[6],32 µg/mL
same,MBIC,[6],16 µg/mL
same,MIC,S. aureus ATCC 9144,8 µg/mL
same,MBEC,[7],64 µg/mL
same,MBIC,[7],16 µg/mL
same,MIC,[8],8 µg/mL
same,MBEC,[9],16 µg/mL
same,MBIC,[9],2 µg/mL
same,MIC,[10],0.5 µg/mL
same,MBEC,[11],16 µg/mL
same,MBIC,[11],2 µg/mL
same,MIC,[12],1 µg/mL
same,MBEC,[13],32 µg/mL
same,MBIC,[13],16 µg/mL
same,MIC,[14],8 µg/mL
same,MBEC,[15],32 µg/mL
same,MBIC,[15],8 µg/mL
same,MIC,[16],16 µg/mL
same,MBEC,[17],16 µg/mL
same,MIC,[18],2 µg/mL
same,MBEC,[19],16 µg/mL
same,MBIC,[19],8 µg/mL
same,MIC,[20],8 µg/mL
same,MBEC,[21],32 µg/mL
same,MBIC,[21],32 µg/mL
same,MIC,[22],8 µg/mL
same,MBEC,[23],16 µg/mL
same,MBIC,[23],1 µg/mL
same,MIC,[24],1 µg/mL
same,mean MBEC (initial values),[25],40.00 µg/mL
same,mean MBIC (initial values),"[25]; average over 14 strains, polystyrene 96-well plates, not corrected",11.82 µg/mL
same,mean MIC (initial values),[26],7.18 µg/mL
same,MIC,S. aureus ATCC 6538,8 µg/mL
same,MBIC,[27],16 µg/mL
same,MBEC,[28],64 µg/mL
KRRWPWWPWRLI-NH2 [Retro-omiganan AcO^−],IC50,[1],23.66 µg/mL
same,MBEC,[4],32 µg/mL
same,MBIC,[4],32 µg/mL
same,MIC,[5],16 µg/mL
same,MBEC,[7],32 µg/mL
same,MBIC,[7],16 µg/mL
same,MIC,[8],16 µg/mL
same,MBEC,[13],32 µg/mL
same,MBIC,[13],16 µg/mL
same,MIC,[14],16 µg/mL
same,MBEC,[19],32 µg/mL
same,MBIC,[19],16 µg/mL
same,MIC,[20],16 µg/mL
same,MBEC,[21],64 µg/mL
same,MBIC,[21],32 µg/mL
same,MIC,[22],16 µg/mL
same,mean MBEC (initial values),[25],32.00 µg/mL
same,mean MIC (initial values),[26],10.00 µg/mL

# — publication PMC12055641, “The Study of Antistaphylococcal Potential of Omiganan and Retro-Omiganan Under Flow Conditions” (Probiotics and Antimicrobial Proteins, 2024)
